Activity calls are given as the source filed them. No cut-off for these calls is given here.
Key:
[1] = Cytotoxicity in human WI-38 cells assessed as safe dose incubated for 72 hrs by MTT assay; assay type: toxicity, cell-based; settings: read-out: EC100
[2] = Selectivity index, ratio of IC50 for human WI-38 cells to IC50 for human Caco-2 cells
[3] = Selectivity index, ratio of IC50 for human WI-38 cells to IC50 for human HeLa cells; assay type: toxicity; settings: WI-38 cells versus HeLa cells, read-out: Ratio IC50
[4] = Cytotoxicity in human WI-38 cells assessed as reduction in cell viability incubated for 72 hrs by MTT assay; assay type: toxicity, cell-based
HeLa [5] = assay: Anticancer activity against human HeLa cells incubated for 72 hrs by MTT assay; assay type: functional, cell-based
HeLa [6] = assay: cells; settings: Homo sapiens, 72 h, read-out: Activity
Description: Induction of apoptosis in human HeLa cells assessed as viable cells incubated at 0.027 uM for 72 hrs by annexin V-FITC based propidium iodide dual staining assay (Rvb = 97.23%)

Caco-2 [7] = assay: Anticancer activity against human Caco-2 cells incubated for 72 hrs by MTT assay; assay type: functional, cell-based; settings: Caco-2, 72 h
HepG2 [8] = assay: cells; settings: Homo sapiens, HepG2, 72 h, read-out: Activity
Description: Induction of apoptosis in human HepG2 cells assessed as viable cells incubated at 0.027 uM for 72 hrs by annexin V-FITC based propidium iodide dual staining assay (Rvb = 97.27%)

Caco-2 [9] = assay: cells; settings: Homo sapiens, Caco-2, 72 h, read-out: Activity
HeLa [10] = assay: Induction of apoptosis in human HeLa cells assessed as ratio of gene expression activity in pro apoptotic Bax to anti apoptotic Bcl-2; assay type: functional
Caco-2 [11] = assay: Induction of apoptosis in human Caco-2 cells assessed as ratio of gene expression activity in pro apoptotic Bax to anti apoptotic Bcl-2; assay type: functional
MCF7 [12] = assay: Induction of apoptosis in human MCF7 cells assessed as ratio of gene expression activity in pro apoptotic Bax to anti apoptotic Bcl-2; assay type: functional
HepG2 [13] = assay: Induction of apoptosis in human HepG2 cells assessed as ratio of gene expression activity in pro apoptotic Bax to anti apoptotic Bcl-2; assay type: functional
[14] = molecular target: Tumour suppressor p53/oncoprotein Mdm2 (Homo sapiens, UniProt P04637+Q00987); assay: Inhibition of human recombinant MDM2/p53 interaction measured after 10 mins by ELISA method; assay type: protein assay
Chain of Tumour suppressor p53/oncoprotein Mdm2 (P04637 whole entry): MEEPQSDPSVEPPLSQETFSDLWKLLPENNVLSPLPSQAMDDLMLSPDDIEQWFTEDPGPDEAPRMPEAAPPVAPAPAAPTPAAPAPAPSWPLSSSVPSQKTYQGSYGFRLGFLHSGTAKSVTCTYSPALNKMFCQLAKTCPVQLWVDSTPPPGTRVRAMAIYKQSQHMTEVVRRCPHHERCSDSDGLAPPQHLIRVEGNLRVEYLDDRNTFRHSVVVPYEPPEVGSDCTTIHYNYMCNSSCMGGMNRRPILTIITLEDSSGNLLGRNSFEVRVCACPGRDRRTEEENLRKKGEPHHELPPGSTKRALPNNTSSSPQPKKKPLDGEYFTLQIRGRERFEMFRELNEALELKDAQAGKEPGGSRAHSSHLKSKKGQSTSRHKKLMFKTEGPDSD
Chain of Tumour suppressor p53/oncoprotein Mdm2 (Q00987 whole entry): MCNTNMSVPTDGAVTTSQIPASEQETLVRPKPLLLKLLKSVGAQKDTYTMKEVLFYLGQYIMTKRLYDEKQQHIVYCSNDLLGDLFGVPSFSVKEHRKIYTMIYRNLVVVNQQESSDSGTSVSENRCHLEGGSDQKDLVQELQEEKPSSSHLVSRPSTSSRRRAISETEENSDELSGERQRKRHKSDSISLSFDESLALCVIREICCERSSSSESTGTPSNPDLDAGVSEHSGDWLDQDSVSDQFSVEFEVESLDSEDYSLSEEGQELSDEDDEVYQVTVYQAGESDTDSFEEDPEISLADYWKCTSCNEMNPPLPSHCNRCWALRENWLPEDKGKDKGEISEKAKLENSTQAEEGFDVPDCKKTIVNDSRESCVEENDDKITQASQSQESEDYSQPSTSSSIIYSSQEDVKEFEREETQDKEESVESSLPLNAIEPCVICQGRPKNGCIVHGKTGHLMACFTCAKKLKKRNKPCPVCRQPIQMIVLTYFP

MCF7 [15] = assay: cells; settings: Homo sapiens, MCF7, 72 h, read-out: Activity
Description: Induction of apoptosis in human MCF7 cells assessed as viable cells incubated at 0.027 uM for 72 hrs by annexin V-FITC based propidium iodide dual staining assay (Rvb = 99.9%)

[16] = Selectivity index, ratio of IC50 for human WI-38 cells to IC50 for human MCF7 cells; assay type: toxicity; settings: WI-38 cells versus MCF7 cells, read-out: Ratio IC50
MCF7 [17] = assay: Anticancer activity against human MCF7 cells incubated for 72 hrs by MTT assay; assay type: functional, cell-based; settings: MCF7, 72 h
[18] = Selectivity index, ratio of IC50 for human WI-38 cells to IC50 for human HepG2 cells; assay type: toxicity; settings: WI-38 cells versus HepG2 cells, read-out: Ratio IC50
HepG2 [19] = assay: Anticancer activity against human HepG2 cells incubated for 72 hrs by MTT assay; assay type: functional, cell-based; settings: HepG2, 72 h
MCF7 [20] = assay: Potency index, ratio of 5-fluorouracil IC50 to test compound IC50 for antiproliferative activity against human MCF7 cells; assay type: functional
HepG2 [21] = assay: Potency index, ratio of 5-fluorouracil IC50 to test compound IC50 for antiproliferative activity against human HepG2 cells; assay type: functional
dsDNA [22] = assay: Induction of damage in dsDNA (unknown origin) assessed as DNA disruption by measuring amplitude at 100 uM incubated for 2.5 hrs by EvaGreen based fluorescence plate reader analysis; assay type: nucleic-acid assay
dsDNA [23] = assay: Induction of damage in dsDNA (unknown origin) assessed as DNA disruption by measuring fluorescence intensity at 100 uM incubated for 2.5 hrs by EvaGreen based fluorescence plate reader analysis; assay type: nucleic-acid assay
dsDNA [24] = assay: Induction of damage in dsDNA (unknown origin) assessed as DNA disruption by measuring damage constant at 100 uM incubated for 2.5 hrs by EvaGreen based fluorescence plate reader analysis; assay type: nucleic-acid assay
Caco-2 [25] = assay: Induction of apoptosis in human Caco-2 cells assessed as pro-oxidant effect by measuring free radical generation measured at 0.097 uM after 72 hrs; assay type: functional, cell-based
MCF7 [26] = assay: Induction of apoptosis in human MCF7 cells assessed as pro-oxidant effect by measuring free radical generation measured at 0.097 uM after 72 hrs; assay type: functional, cell-based

Row | Compound | MNTC at 72 h [1] [nM] | Ratio IC50 [2] | selectivity ratio [3] | IC50 at 72 h [4] [nM] | IC50 (HeLa [5]) [nM] | IC50 (Caco-2 [7]) [nM] | selectivity ratio [16] | IC50 (MCF7 [17]) [nM] | selectivity ratio [18] | IC50 (HepG2 [19]) [nM] | Ratio IC50 (MCF7 [20]) | Ratio IC50 (HepG2 [21]) | also measured
1 | O=C1CN(/N=C/c2ccc([N+](=O)[O-])o2)C(=O)N1 [NITROFURANTOIN] | 27 | 1.41 | 0.98 | 162 | 166 | 115 | – | – | – | – | – | – | viability at 0.027 µM (HeLa [6]): 84.8%; viability at 0.027 µM (HepG2 [8]): 98.7%; viability at 0.027 µM (Caco-2 [9]): 85%; Ratio (HeLa [10]): 1.42; Ratio (Caco-2 [11]): 1.385; Ratio (MCF7 [12]): 0.958; Ratio (HepG2 [13]): 1.002; IC50 [14]: 1580 nM; viability at 0.027 µM (MCF7 [15]): 98.8%
2 | Cc1ccc(C(=O)CN2C(=O)CN(/N=C/c3ccc([N+](=O)[O-])o3)C2=O)cc1 | 33 | 1.28 | 1.58 | 180 | 115 | 140 | 0.706 | 255 | 0.628 | 287 | – | – | –
3 | O=C1CN(/N=C/c2ccc([N+](=O)[O-])o2)C(=O)N1Cc1ccc(Br)cc1 | 32 | – | 0.65 | 119 | 183 | – | 1.5 | 80 | 1.78 | 67 | 1.2 | 1.2 | –
4 | O=C1CN(/N=C/c2ccc([N+](=O)[O-])o2)C(=O)N1Cc1cn(-c2ccccc2)nn1 | 36 | 1.53 | 2.61 | 220 | 84 | 144 | 1.74 | 128 | 2.11 | 104 | 1.2 | 1.2 | –
5 | COc1ccc(C(=O)CN2C(=O)CN(/N=C/c3ccc([N+](=O)[O-])o3)C2=O)cc1 | 26 | 1.37 | 1.61 | 140 | 87 | 105 | 0.706 | 198 | 0.948 | 149 | 1.2 | 1.2 | –
6 | COc1cccc2c1C(=O)c1c(O)c3c(c(O)c1C2=O)C[C@@](O)(C(=O)CO)C[C@@H]3O[C@H]1C[C@H](N)[C@H](O)[C@H](C)O1 | – | – | – | – | – | – | – | – | – | – | – | – | Activity (dsDNA [22]): 218; Activity (dsDNA [23]): 65.4; Activity (dsDNA [24]): 15.2
7 | O=C1CN(/N=C/c2ccc([N+](=O)[O-])o2)C(=O)N1Cc1ccc([N+](=O)[O-])cc1 | 9 | 1.75 | 1.51 | 181 | 121 | 103 | 1.77 | 103 | 1.42 | 127 | 1.2 | 1.2 | –
8 | O=C1CN(/N=C/c2ccc([N+](=O)[O-])o2)C(=O)N1Cc1cn(-c2ccc(Cl)cc2)nn1 | 29 | 1.95 | 1.92 | 150 | 78 | 77 | 1.77 | 85 | 0.376 | 400 | 1.2 | – | Activity (Caco-2 [25]): Active; Activity (MCF7 [26]): Active
9 | O=C1CN(/N=C/c2ccc([N+](=O)[O-])o2)C(=O)N1Cc1cn(-c2ccc(S(=O)(=O)Nc3nccs3)cc2)nn1 | 32 | 1.01 | 0.813 | 87.9 | 108 | 87 | 0.727 | 120 | 1.23 | 71 | 1.2 | 1.2 | –
10 | O=C1CN(/N=C/c2ccc([N+](=O)[O-])o2)C(=O)N1Cc1cn(-c2ccc([N+](=O)[O-])cc2)nn1 | 26 | 1.32 | 1.62 | 183 | 113 | 140 | 1.56 | 117 | 2.92 | 63 | 1.2 | 1.2 | –
11 | O=C(CN1C(=O)CN(/N=C/c2ccc([N+](=O)[O-])o2)C1=O)c1ccccc1 | 19 | 3.08 | – | 226 | – | 73 | 2.98 | 76 | 0.824 | 277 | 1.2 | – | –
12 | O=C1CN(/N=C/c2ccc([N+](=O)[O-])o2)C(=O)N1Cc1ccccc1 | 33 | 1.19 | 1.68 | 216 | 129 | 182 | 1.92 | 113 | 1.82 | 120 | 1.2 | 1.2 | –
13 | Cc1ccc(-n2cc(CN3C(=O)CN(/N=C/c4ccc([N+](=O)[O-])o4)C3=O)nn2)cc1 | 27 | 2.05 | 3.92 | 232 | 59 | 113 | 1.6 | 145 | 0.824 | 283 | 1.2 | – | –
14 | O=C(CN1C(=O)CN(/N=C/c2ccc([N+](=O)[O-])o2)C1=O)c1ccc(Br)cc1 | 66 | 3.05 | 2.47 | 240 | 97 | 78 | 2.31 | 105 | 0.83 | 289 | 1.2 | – | –
